In US6113907A, “Pharmaceutical grade St. John's Wort” (priority 1997, dated 2000):
Like-named read-outs stand apart in the source and are kept apart here.

Columns and labels:
GABAA receptor = assay: GABAA agonist site binding assay, [3H]-GABA, bovine cerebellar membranes; settings: 10^-4 M
Method: The reference literature compounds for this assay include diazepam and muscimol (Sigma Chemical Company).
The reaction is terminated by rapid vacuum filtration onto glass fiber filters. Radioactivity trapped onto the filters is determined and compared to control values in order to ascertain any interactions of test compound with the GABAA receptor.

serotonin transporter = target: T1, serotonin transporter (Rattus norvegicus, UniProt P31652); assay: serotonin transporter assay, [125I]-RTI-121, rat cerebral cortical membranes; format: binding
T1 construct: Cerebral cortical membranes derived from male Wistar rats; from tissue; host or cells: cerebral cortical membranes of male Wistar rats

Nitric oxide synthetase = assay: nitric oxide synthetase binding (NOS), [3H] NOARG, rat brain membranes; settings: 10^-4; 60 min, 100 µM
Method: The inhibition of MAOA enzymatic activity (MAOA) was determined using rat liver mitochondrial membranes as a partially purified enzyme source. […] The reaction involves the conversion of the substrate to [^14 C] 5-hydroxyl indoleacetaldehyde+NH4^+. In brief, the enzyme is preincubated with the substances and the subtype specific blocker deprenyl (at 300 nM) for 60 minutes at 37° C. in 100 mM KPO4 (pH 7.2). Substrate is added and incubated for an additional 10 minutes. The reaction is terminated by the addition of 0.5 ml of 2M citric acid. […] Nitric oxide synthetase activity was measured using a binding assay (NOS). The receptors were made by partial purification of material from rat brain membranes. The radioligand used was [^3 H] L-N^G -Nitro-Arginine (NOARG) at a final concentration of 5 nM. Non-specific binding was determined using 100 μM of NOARG. The assay reactions were carried out in 50 mM Tris-HCl (pH 7.4) for 60 minutes at 25° C.

adenosine receptor = adenosine receptor non-selective (ADNS), [3H] NECA, bovine striatal membranes; format: binding
Method: To determine the inhibitory activity of the substances for the dopamine receptor (dp) the following assay was preformed. A partial receptor preparation was prepared from bovine striatal membranes using [^3 H] spiperone as the ligand at a final concentration of 0.3 nM. To determine non-specific binding cold spiperone was tested at 1 μM. The reactions were carried out in 50 mM Tris-HCl (pH 7.7) containing 120 mM NaCl, 5 mM KCl, 2 mM CaCl2 and 1 mM MgCl2 at 37° C. for 60 minutes. […] The inhibitory properties of the substances for binding of ligand to the adenosine receptor (ADNS) was measured using a partially purified receptor preparation made from bovine striatal membranes. The radioligand used was [^3 H] 5'-N-ethylcarboxyamidoadenosine (NECA) at a final ligand concentration of 4 nM. Non-specific binding was determined in the presence of 10 μM NECA. The reactions were carried out in 50 mM Tris-HCL (pH 7.7) for 60 minutes at 25° C. […] To measure the inhibitory activity of the substances for the opiate receptor (Opiate) receptor was partially purified from rat forebrains. [^3 H] naloxone at 1 nM as the ligand used. Non-specific binding was determined in the presence of 1 μM of naloxone. The assays were carried out in 50 mM Tris-HCl (pH 7.4) at 25° C. for 90 minutes. […] The neuronal nicotinic receptor (Nicotinic Neuronal) was assayed using receptors partially purified from rat cortical membranes. The radioligand used was [^3 H] N-methylcarbamylcholine iodide at a final ligand concentration of 5 nM. Non-specific binding was determined in the presence of 1 μM nicotine sulfate. The assay reactions were carried out in 50 mM Tris-HCl (pH 7.4) containing 120 mM NaCl, 5 mM KCl, 2 mM CaCl2, 1 mM MgCl2, and 3 μM atropine sulfate at 4° C. for 60 minutes. […] To determine how the substances inhibit the corticotropin releasing factor (CRF) partially purified receptor from rat cortical membranes was used as the receptor preparation. […] Tyr-° CRF at a final ligand concentration of 0.1 nM. Non-specific binding was determined in the presence of 1 μM Tyr-° CRF. The reactions were carried out in 50 mM HEPES containing 10 mM MgCl2, 2 mM EGTA, 0.12 TIU/ml aprotinin and 0.3% BSA at 25° C. for 120 minutes. The reaction is terminated by centrifugation in a Sorvall centrifuge for 15 minutes at 4° C.

opiate receptor = opiate receptor non-selective, [3H] naloxone, rat forebrain; format: binding
Method: To determine the inhibitory activity of the substances for the dopamine receptor (dp) the following assay was preformed. A partial receptor preparation was prepared from bovine striatal membranes using [^3 H] spiperone as the ligand at a final concentration of 0.3 nM. To determine non-specific binding cold spiperone was tested at 1 μM. The reactions were carried out in 50 mM Tris-HCl (pH 7.7) containing 120 mM NaCl, 5 mM KCl, 2 mM CaCl2 and 1 mM MgCl2 at 37° C. for 60 minutes. […] The inhibitory properties of the substances for binding of ligand to the adenosine receptor (ADNS) was measured using a partially purified receptor preparation made from bovine striatal membranes. The radioligand used was [^3 H] 5'-N-ethylcarboxyamidoadenosine (NECA) at a final ligand concentration of 4 nM. Non-specific binding was determined in the presence of 10 μM NECA. The reactions were carried out in 50 mM Tris-HCL (pH 7.7) for 60 minutes at 25° C. […] To measure the inhibitory activity of the substances for the opiate receptor (Opiate) receptor was partially purified from rat forebrains. [^3 H] naloxone at 1 nM as the ligand used. Non-specific binding was determined in the presence of 1 μM of naloxone. […] Non-specific binding was determined in the presence of 1 μM nicotine sulfate. […] Non-specific binding was determined in the presence of 1 μM Tyr-° CRF. […]

MAOB = assay: NIMH/NovaScreen screen, MAOB; format: biochemical; settings: up to 0.1 mM
Method: Through an NIMH screening contract (NovaScreen™, Baltimore, Md.) a commercially available crude extract from the fresh flowers and buds of Hypericum perforatum [1:1.5; hydro-alcohol (40:60) made from flowering tops; Herb Pharm] containing ~0.1% hypericin was dried under vacuum, dissolved in 4% DMSO, and diluted to an initial concentration of 50 mg/ml for in vitro screening in a battery of 39 receptor assays and two enzyme systems (Table 5, below).

herpes simplex = settings: cited from earlier work
[1] = system: human immunodeficiency virus type 1 (HIV-1); settings: cited from earlier work
Sindbis virus = settings: cited from earlier work
[2] = mice; cited from earlier work

T1 sequence (P31652 whole entry): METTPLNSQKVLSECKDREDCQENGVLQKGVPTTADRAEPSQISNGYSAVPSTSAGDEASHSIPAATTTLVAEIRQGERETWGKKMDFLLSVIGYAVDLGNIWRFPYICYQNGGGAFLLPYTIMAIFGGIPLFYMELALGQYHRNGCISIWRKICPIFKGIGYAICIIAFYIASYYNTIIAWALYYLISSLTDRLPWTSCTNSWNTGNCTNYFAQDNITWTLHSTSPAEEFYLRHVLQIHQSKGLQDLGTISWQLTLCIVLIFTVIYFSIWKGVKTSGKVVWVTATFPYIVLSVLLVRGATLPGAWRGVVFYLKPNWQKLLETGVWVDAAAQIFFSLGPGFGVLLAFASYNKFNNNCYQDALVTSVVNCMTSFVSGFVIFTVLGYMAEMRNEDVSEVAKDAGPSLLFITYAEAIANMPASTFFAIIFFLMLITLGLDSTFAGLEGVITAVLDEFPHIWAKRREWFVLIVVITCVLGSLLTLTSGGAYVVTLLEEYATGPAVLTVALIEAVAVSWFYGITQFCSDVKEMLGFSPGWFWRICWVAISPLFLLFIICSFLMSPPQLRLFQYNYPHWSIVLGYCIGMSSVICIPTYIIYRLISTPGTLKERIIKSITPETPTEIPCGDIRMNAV

In the case of `Cc1cc(O)c2c(=O)c3c(O)cc(O)c4c5c(O)cc(O)c6c(=O)c7c(O)cc(C)c8c1c2c(c34)c(c78)c65` [Hypericin, hypericin], the “GABAA % inhibition (PharmaPrint range)” value (GABAA receptor) is reported as 30 ± 15%, the inhibition at 100 µM (serotonin transporter; 10^-4, read-out: Sero) is reported as 51% and the inhibition at 100 µM (serotonin transporter; 10^-4 M, read-out: Sero % inhibition (PharmaPrint range)) is reported as 51 ± 2%. The IC50 (serotonin transporter; read-out: Sero (concentration)) was 4 µM, the NOS (Nitric oxide synthetase) was 48% and the ADNS (adenosine receptor; 10^-4, 60 min, 100 µM) was 70%. For the same compound, the “AD,NS % inhibition (PharmaPrint range)” value (adenosine receptor; 10^-4 M) was 70 ± 20%, the OPNS (opiate receptor; 10^-4, Table 9I, 100 µM) was 44% and the “Opiate NS % inhibition (PharmaPrint range)” value (opiate receptor; 10^-4 M) was 70 ± 35%. For the same compound, the “MAO-B inhibition” value (MAOB) was “lacked significant MAOA or MAO-^B inhibition”, the “inhibition of herpes simplex” value (herpes simplex) was “inhibit” and the “inhibition of HIV-1” value [1] was “inhibit”. For the same compound, the “activity against Sindbis virus” value (Sindbis virus) was “Activity has also been reported” and the “antiviral activity in vivo” value [2] was “show antiviral activity in vivo (mice)”.
